# Earlier results in US12359156B2, “Platform and method for testing antibiotic sensitivity of a polymicrobial infection” (Wisconsin Alumni Research Foundation, priority 2018, dated 2025).
# Tested on: infection (patients' bacterial pathogens)
# Conditions: phase 3 clinical trial
smiles,measurement,setting,value
CO/N=C(\C(=O)N[C@@H]1C(=O)N2C(C(=O)O)=C(COC(C)=O)CS[C@H]12)c1csc(N)n1 [cefotaxime],patients who responded to the antibiotic therapy,"patients with a ""resistant"" antibiotic sensitivity test result",64%
same,patients who would respond to the antibiotic therapy,"patients with a ""sensitive"" antibiotic sensitivity test result, best case scenario",93%
